According to ChEMBL document CHEMBL5608217, “New potent EV-A71 antivirals targeting capsid” (Eur J Med Chem, 2024):
Active and inactive are the calls of the source. The rule behind the calls is not given here.

Assays:
Enterovirus A71 [1] = assay: Antiviral activity against Enterovirus A71 infected in human MRC5 cells assessed as reduction in viral replication incubated for 72 hrs by RT-qPCR analysis; assay type: functional, organism-based; conditions: Enterovirus A, MRC5, 72 h
Enterovirus A71 [2] = assay: Antiviral activity against Enterovirus A71 infected in human RD cells assessed as inhibition of viral replication at 0.31 to 40 uM incubated for 72 hrs by RT-qPCR analysis relative to control; assay type: functional; conditions: dose 0.31-40 µM
[3] = Genotoxicity in Chinese hamster CHO-K1 cells assessed as increase in micronucleated cell rate at […] incubated for 3 hrs in presence of Sprague-Dawley rat liver S9 fraction by Giemsa staining based micronucleus assay; assay type: toxicity, subcellular, Cricetulus griseus; conditions: s9, 3 h, dose lower 1 g/L
Enterovirus A71 [4] = assay: Antiviral activity against Enterovirus A71 infected in human RD cells assessed as reduction in viral replication incubated for 72 hrs by RT-qPCR analysis; assay type: functional, organism-based; conditions: Enterovirus A
[5] = Cytotoxicity against human MRC5 cells; assay type: toxicity, cell-based
[6] = Cytotoxicity against Chinese hamster CHO-K1 cells incubated for 24 hrs by neutral red dye uptake assay; assay type: toxicity, cell-based, Cricetulus griseus
[7] = Selectivity index, ratio of CC50 for cytotoxicity against human MRC5 cells to EC50 for antiviral activity against Enterovirus A71 infected in human MRC5 cells; assay type: toxicity, cell-based; conditions: read-out: Ratio CC50/EC50
[8] = Selectivity index, ratio of CC50 for cytotoxicity against human RD cells to EC50 for antiviral activity against Enterovirus A71 infected in human RD cells; assay type: toxicity, cell-based; conditions: read-out: Ratio CC50/EC50
Enterovirus A71 [9] = assay: Antiviral activity against Enterovirus A71 infected in human MRC5 cells assessed as inhibition of viral replication at 0.31 to 40 uM incubated for 72 hrs by RT-qPCR analysis relative to control; assay type: functional; conditions: dose 0.31-40 µM
[10] = Cytotoxicity against human RD cells; assay type: toxicity, cell-based
[11] = Genotoxicity in Chinese hamster CHO-K1 cells assessed as increase in micronucleated cell rate at […] incubated for 3 hrs in absence of Sprague-Dawley rat liver S9 fraction by Giemsa staining based micronucleus assay; assay type: toxicity, Cricetulus griseus; conditions: cho-k1, 3 h, dose lower 1 g/L
rhinovirus B14 = assay: Antiviral activity against Human rhinovirus B14 infected in human HeLa-RH cells assessed as inhibition of virus induced cytopathic effect incubated for 3 days by MTS assay; assay type: functional, organism-based; conditions: Rhinovirus B, 72 h

CCOc1ccc(-c2ccc(SCc3ccc(-n4cncn4)cc3)nc2)cc1
EC50 (Enterovirus A71 [1]): > 20 µM

OCc1ccc(-c2ccc(SCc3ccc(-n4cncn4)cc3)nc2)cc1
inhibition (Enterovirus A71 [2]): Active | Activity [3]: Non-Toxic | EC50 (Enterovirus A71 [4]): 1.66 µM | EC50 (Enterovirus A71 [1]): 0.29 µM | CC50 [5]: > 20 µM | CC50 at 24 h [6]: 41.3 µM | selectivity ratio [7]: > 68 | selectivity ratio [8]: > 24 | inhibition (Enterovirus A71 [9]): Active | CC50 [10]: > 40 µM | Activity [11]: Non-Toxic

FC(F)(F)c1ccc2c(SCc3ccc(-n4cncn4)cc3)ccnc2c1
EC50 (Enterovirus A71 [4]): 12.7 µM | EC50 (Enterovirus A71 [1]): 28 µM | CC50 [5]: > 40 µM | CC50 [10]: 20.8 µM

OCc1ccc(-c2ccc(SCc3ccc(-c4ccc(C(F)(F)F)cc4)cc3)nc2)cc1
EC50 (Enterovirus A71 [1]): > 20 µM

c1ccc2nc(SCc3ccc(-n4cncn4)cc3)cnc2c1
EC50 (Enterovirus A71 [4]): 6.8 µM | EC50 (Enterovirus A71 [1]): 38.1 µM | CC50 [5]: > 40 µM | CC50 [10]: > 40 µM

Cc1ccc2oc(SCc3ccc(-n4cncn4)cc3)nc2c1
EC50 (Enterovirus A71 [1]): > 20 µM

c1ccc2nc(SCc3ccc(-n4cncn4)cc3)ccc2c1
EC50 (Enterovirus A71 [4]): > 40 µM | EC50 (Enterovirus A71 [1]): 39.7 µM | CC50 [5]: > 40 µM | CC50 [10]: > 40 µM

OCc1ccc(-c2ccc(SCc3ccc(-c4ccc(N5CCOCC5)cc4)cc3)nc2)cc1
Activity [3]: Non-Toxic | EC50 (Enterovirus A71 [4]): 19.7 µM | EC50 (Enterovirus A71 [1]): 6.38 µM | CC50 [5]: > 20 µM | CC50 at 24 h [6]: 45.8 µM | selectivity ratio [7]: > 3.1 | selectivity ratio [8]: > 2 | CC50 [10]: > 40 µM | Activity [11]: Non-Toxic

CCOc1ccc(-c2ccc(CSc3nc4cc(OC)ccc4o3)cc2)cc1
EC50 (Enterovirus A71 [1]): > 20 µM

CN(C)c1ccc(-c2ccc(SCc3ccc(-n4cncn4)cc3)cc2)cc1
EC50 (Enterovirus A71 [1]): > 20 µM

Cn1nccc1-c1ccc(SCc2ccc(-n3cncn3)cc2)cc1
inhibition (INH) (Enterovirus A71 [2]): 100% | Activity [3]: Non-Toxic | EC50 (Enterovirus A71 [4]): 4.38 µM | EC50 (Enterovirus A71 [1]): 0.57 µM | CC50 [5]: > 20 µM | CC50 at 24 h [6]: 44.8 µM | selectivity ratio [7]: > 35 | selectivity ratio [8]: > 9 | inhibition (INH) (Enterovirus A71 [9]): 100% | CC50 [10]: > 40 µM | Activity [11]: Non-Toxic

COc1ccc2oc(SCc3ccc(-c4ccc(N(C)C)cc4)cc3)nc2c1
EC50 (Enterovirus A71 [1]): > 20 µM

OCc1ccc(-c2ccc(SCc3ccc(-c4ccc(O)cc4)cc3)nc2)cc1
EC50 (Enterovirus A71 [1]): > 20 µM

Cn1nccc1-c1ccc(SCc2ccc(-n3cncn3)cc2)nc1
EC50 (Enterovirus A71 [1]): > 20 µM

Cc1ccc(-c2ccc(SCc3ccc(-n4cncn4)cc3)cc2)cc1
EC50 (Enterovirus A71 [1]): > 20 µM

FC(F)(F)c1ccc(-c2ccc(SCc3ccc(-n4cncn4)cc3)cc2)cc1
EC50 (Enterovirus A71 [1]): > 20 µM

CCOc1ccc(-c2ccc(CSc3ccc(-c4ccc(CO)cc4)cc3)cc2)cc1
EC50 (Enterovirus A71 [1]): > 20 µM

Clc1ccc2oc(SCc3ccc(-n4cncn4)cc3)nc2c1
EC50 (Enterovirus A71 [1]): > 20 µM

COc1ccc2oc(SCc3ccc(-n4cncn4)cc3)nc2c1
Activity [3]: Non-Toxic | EC50 (Enterovirus A71 [4]): 28.5 µM | EC50 (Enterovirus A71 [1]): 1.67 µM | CC50 [5]: > 20 µM | CC50 at 24 h [6]: 32.1 µM | selectivity ratio [7]: < 1 | CC50 [10]: 22.1 µM | Activity [11]: Non-Toxic

c1ccc2[nH]c(SCc3ccc(-n4cncn4)cc3)nc2c1
EC50 (Enterovirus A71 [1]): > 20 µM

O=Cc1ccc(-c2ccc(SCc3ccc(-n4cncn4)cc3)nc2)cc1
EC50 (Enterovirus A71 [1]): > 20 µM

CCOc1ccc(-c2ccc(SCc3ccc(-n4cncn4)cc3)cc2)cc1
EC50 (Enterovirus A71 [1]): > 20 µM

Cc1cccc2c1[nH]c1nc(SCc3ccc(-n4cncn4)cc3)nnc12
EC50 (Enterovirus A71 [4]): 4.65 µM | EC50 (Enterovirus A71 [1]): 26.5 µM | CC50 [5]: 15.6 µM | CC50 [10]: 8.89 µM

CN1CCC(c2ccc(-c3ccc(CSc4ccc(-c5ccc(CO)cc5)cn4)cc3)cc2)CC1
EC50 (Enterovirus A71 [1]): > 20 µM

CCOc1noc2cc(OCCC3CCN(c4ccc(C)nn4)CC3)ccc12 [VAPENDAVIR]
CC50 [5]: > 20 µM | CC50 [10]: > 63 µM

CCOc1ccc(-c2ccc(CSc3ccc(-c4ccc(CO)cc4)cn3)cc2)cc1
EC50 (Enterovirus A71 [1]): > 20 µM

c1ncn(-c2ccc(CSc3ccc(-c4ccc(N5CCOCC5)cc4)cc3)cc2)n1
EC50 (Enterovirus A71 [1]): > 20 µM

OCc1ccc(-c2ccc(SCc3ccc(-n4cncn4)cc3)cc2)cc1
EC50 (Enterovirus A71 [1]): > 20 µM

c1ccc2sc(SCc3ccc(-n4cncn4)cc3)nc2c1
EC50 (Enterovirus A71 [1]): > 20 µM

COc1ccc2[nH]c(SCc3ccc(-n4cncn4)cc3)nc2c1
EC50 (Enterovirus A71 [4]): > 40 µM | EC50 (Enterovirus A71 [1]): > 40 µM | CC50 [5]: > 40 µM | CC50 [10]: > 40 µM

Fc1ccc(-c2ccc(SCc3ccc(-n4cncn4)cc3)cc2)cc1C(F)(F)F
EC50 (Enterovirus A71 [1]): > 20 µM

CN(C)c1ccc(-c2ccc(CSc3ccc(-c4ccc(CO)cc4)cn3)cc2)cc1
EC50 (Enterovirus A71 [1]): > 20 µM

COc1cc(C[C@H](O)c2ccc(C#N)cc2)c([N+](=O)[O-])cc1OC
EC50 (rhinovirus B14): 2 µM

c1ccc2oc(SCc3ccc(-n4cncn4)cc3)nc2c1
EC50 (Enterovirus A71 [1]): > 20 µM
